Data: patent US9765113B2, “Methods and agents for the treatment of cancer” (INTERK PEPTIDE THERAPEUTICS LIMITED, priority 2003, dated 2017)
Read-outs that look alike come from different tables or passages of the source. Each block holds one compound with its values, some of them ahead of it. Ends that are not written are not given here.

Key:
[1] = system: HUVEC cells; test: Cell proliferation assay using MTT; format: cell-based, human
Description: The ability of the 10(4) peptide […] (SEQ ID No: 7) linked to the signal peptide […] (SEQ ID No: 1) to inhibit the proliferation of the above cell lines was assessed using the cell proliferation assay described in Example 2.1.

[2] = system: normal keratinocytes (KC); test: Annexin-V-FITC FACScan apoptosis analysis; settings: FIG. 23
Description: (§1) The killing of HT29 cancer cells compared to normal keratinocytes, human umbilical vein epithelial cells (HUVECs) and skin fibroblasts by the peptide […] (IK2) (SEQ ID No: 16) was assessed. Briefly, cells were recovered by trypsinisation and resuspended into fresh culture medium. Cell viability was determined (0.4% Trypan Blue in phosphate buffered saline (PBS) 1:1 v/v), and 0.75×10^6 viable cells were passaged into a 25 cm^2 tissue culture flask then cultured for 24 hours at 37° C., 5% CO2 in air. Immediately prior to the addition of the IK2 peptide, culture media was removed by decanting and replaced with fresh media (2.0 mls minus volume addition of IK2 peptide). The treated cells were then cultured for 16 hours.
(§2) Cells were prepared as above for the positive control. Staurosporine (Sigma #S5921) was added to the culture media to a final concentration of 1 μM and the cells exposed to the apoptosis inducer for a maximum of 1-2 hours. For a negative control, vehicle alone (normal saline) was added to cell culture media.
(§3) Apoptotic cells were detected by FACScan analysis utilising Annexin-V-FITC (Sigma kit #A2214) to indicate apoptosis. For the analysis, cells were recovered by trypsinisation as above, and resuspended (˜1×10^6 cells/ml) into 1× binding buffer (Sigma #B9796). 500 μl of cell suspension was then aliquoted into a 10 ml plastic test tube, prior to the addition of 5 μl of Annexin-V FITC and 10 μl of propidium iodide (Sigma #P2667). Cells were incubated at room temperature for 10 minutes in the dark and fluorescence determined by flow cytometer. Living cells are not stained by either Annexin-V-FITC or propidium iodide, while early apoptosis is indicated by staining with Annexin-V-FITC only and necrotic cells are stained by both Annexin-V-FITC and propidium iodide.

[3] = system: HUVEC; test: Annexin-V-FITC FACScan apoptosis analysis; settings: FIG. 23
Description: as §1, §2, §3

[4] = system: skin fibroblasts (SkinF); test: Annexin-V-FITC FACScan apoptosis analysis; settings: skin fibroblast (SkinF), FIG. 23
Description: as §1, §2, §3

[5] = system: HT29 colon cancer cells; test: Annexin-V-FITC FACScan apoptosis analysis; format: cell-based; settings: peptide 16 hours, staurosporine 1 μM 1-2 hours
Description: as §1, §2
Apoptotic cells were detected by FACScan analysis utilising Annexin-V-FITC (Sigma kit #A2214) to indicate apoptosis. For the analysis, cells were recovered by trypsinisation as above, and resuspended (˜1×10^6 cells/ml) into 1× binding buffer (Sigma #B9796). […] Cells were incubated at room temperature for 10 minutes in the dark and fluorescence determined by flow cytometer. […]

[6] = system: HT29 colon cancer xenografts; test: In vivo tumour growth of HT29 colon cancer xenografts; design: species or system Balb/c athymic mice
Description: Balb/c female athymic mice (8 weeks of age obtained from the Animal Resource Centre, Perth, Western Australia) were maintained under pathogen-free conditions and fed standard mouse chow and water ad lib. The mice were divided into groups of ten each. Mice in different groups were marked by ear notching. Briefly, the mice were anaesthetised using isoflurothane by inhalation and their ears marked using a surgical punch. After a recovery period of 48 hours, the mice in each group were injected with 1×10^6 HT29 colon cancer cells in standard DMEM culture medium subcutaneously dorsally behind the right shoulder using a 21-gauge needle. Animal weights and tumour sizes (breadth and length measured with callipers) were recorded weekly. Mice were sacrificed by CO2 asphyxiation and tumour mass excised for measurement.
Mice were injected twice weekly for four weeks commencing 10 days after tumour cell inoculation with DMEM, signal peptide ([…]) (designated “carrier”) (SEQ ID No: 1) or the […] (IK-1) (SEQ ID No: 19) peptide agent, and tumour growth was compared to an untreated control group.
Colon cancer inhibition by peptide […] (IK2P) (SEQ ID No: 18) administered intravenously to colon tumour bearing Balb/c athymic mice as per the protocol described above, is shown in FIG. 20. Colon tumour xenografts were achieved by injection of 1×10^6 HT29 colon cancer cells as above. […]

[7] = system: cancer cell lines; test: Proliferation of cancer cell lines with signal peptide alone; format: cell-based; settings: any cancer cell lines tested, data not shown
[8] = system: HT29 colon cancer cells
Description: (§7) An assay using the substrate methylthiazoletetrazolium (MTT) was utilised to determine the inhibitory affect of peptide agents on cancer cell proliferation. MTT substrate (CAT No. M-2128, Sigma) is cleaved in growing cells to yield a water insoluble salt. After solubilisation of the salt, a coloured product is produced that allows quantitation of the proliferative activity of the cultured cells. To prepare the MTT solution for use in the assay, 100 mg of MTT is mixed with 20 ml of PBS at pH 7.4. The resulting solution is filter sterilised (0.2 μM syringe filter) and stored at 4° C. protected from light until use.
(§8) Cells from the colon cancer cell line HT29 were seeded into wells of a 96-well microlitre plate in Dulbecco's Modified Eagle's Medium (DMEM) supplemented with 10% foetal bovine serum, glutamine, Hepes, and antibiotics at a concentration of 2,000 cells/100 μl and cultured for 24 hours in 5% CO2 in air at 37° C. After the 24 hour incubation period the test agent (solubilised in complete DMEM) is added to test wells to a final media volume of 200 μl and the microtitre plate is incubated for a further 48 to 72 hour period.
(§9) A 20 μl volume of the MTT solution prepared as above is then added to the test wells and the microtitre plate incubated for further 3 hours in 5% CO2 in air at 37° C. The plate is subsequently centrifuged for 5 minutes at 2,000 rpm in a microplate carrier. The supernatant is then removed from the wells using a multichannel pipette leaving MTT crystals in the wells.
(§10) To the wells is then added 150 μl of 6:1 v/v DMSO/glycine solution (0.1 M glycine and 0.1 M NaCl adjusted to pH 10.5 using NaOH) and the MTT crystals are dissolved by gently vortexing the microtitre plate. Absorbance is read at 550 nm using a microtitre plate reader.

[9] = system: HT29 colon cancer cells; test: Cell proliferation assay using MTT; settings: for inhibition of proliferation (in words): relative to untreated control cells
Description: as §7, §8, §9, §10

[10] = biological target: T1, cytoplasmic domain of β6 (Homo sapiens, UniProt P18564); test: ELISA binding of MAP kinase fragments to the cytoplasmic domain of β6; settings: FIG. 1 and FIG. 4
T1 sequence (P18564 737-788): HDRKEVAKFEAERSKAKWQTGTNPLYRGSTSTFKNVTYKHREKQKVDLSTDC
Description: Primary antibody detection for the MAP kinase is then added to the test wells and the ELISA plate is allowed to stand for a further 30 minutes at room temperature before the antibody solution is decanted from the plate and the wells again washed with the wash solution. Optimal dilutions of primary detection antibody are pre-determined for each target MAP kinase. […] The wells are read at 405 nm using a microplate reader (Bio-Rad). […]
The binding of various MAP kinases to the cytoplasmic domain of β6 was tested using the assay described in Example 1.1. […] (SEQ ID No: 26), and the binding interaction detected using the anti-β6 antibody R6G9. […]

[11] = system: ERK2; test: ELISA assay for detection of MAP kinase binding to biotinylated peptide; settings: result in words
Description: (§4) An assay was developed for detecting the ability of MAP kinases to bind with a peptide agent in solution.
(§5) Briefly, the MAP kinase is added to an eppendorf tube containing a biotinylated test peptide in phosphate buffered saline (PBS) at pH 7.4. The mixture is allowed to stand at room temperature for 10 minutes with occasional mixing by gentle inversion of the tube. The MAP kinase/test peptide mixture is then transferred to a pre-washed (PBS×3×100 μl) 96-well streptavidin coated ELISA microtitre plate and allowed to stand for 60 minutes at room temperature. At the end of the 60 minute period, the MAP kinase/test peptide mixture is tipped from the ELISA plate and the wells washed 3 times with wash solution (PBS+0.05% Tween−20).
(§6) Primary antibody detection for the MAP kinase is then added to the test wells and the ELISA plate is allowed to stand for a further 30 minutes at room temperature before the antibody solution is decanted from the plate and the wells again washed with the wash solution. Optimal dilutions of primary detection antibody are pre-determined for each target MAP kinase. Alkaline-phosphatase or other enzyme conjugated anti-primary species antibody at a dilution of 1:2000 v/v is subsequently added to the wells and the microtitre plate is allowed to stand for another 30 minutes at room temperature, before the washing step is repeated and phosphatase detection reagent is added to the wells and the colour reaction allowed to develop. The wells are read at 405 nm using a microplate reader (Bio-Rad). Controls comprise non-biotinylated peptide and biotinylated peptide alone

[12] = biological target: T2, ERK1 (Homo sapiens, UniProt P27361); test: as above; settings: FIG. 2
T2 construct: GST (N, cleaved yes); made in house
Description: as §4, §5, §6

T2 sequence (P27361 whole entry, species assumed): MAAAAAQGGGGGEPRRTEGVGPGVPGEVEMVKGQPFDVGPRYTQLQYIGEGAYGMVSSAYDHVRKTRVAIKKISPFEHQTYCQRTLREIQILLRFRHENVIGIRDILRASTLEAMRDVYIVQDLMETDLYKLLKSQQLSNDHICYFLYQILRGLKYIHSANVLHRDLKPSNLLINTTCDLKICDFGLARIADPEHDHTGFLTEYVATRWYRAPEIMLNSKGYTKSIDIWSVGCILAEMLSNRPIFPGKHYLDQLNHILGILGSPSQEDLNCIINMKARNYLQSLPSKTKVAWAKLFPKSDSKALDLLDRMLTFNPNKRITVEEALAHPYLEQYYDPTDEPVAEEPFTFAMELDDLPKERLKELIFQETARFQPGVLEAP

Compound: O=c1[nH]cc(F)c(=O)[nH]1 [5-FU, 5-Fluorouracil, reference compound]
impact on proliferation of normal HUVEC cells [1]: toxicity

Compound: CN[C@@H]1C[C@H]2O[C@@](C)([C@@H]1OC)n1c3ccccc3c3c4c(c5c6ccccc6n2c5c31)C(=O)NC4 [staurosporin, Staurosporine, reference compound]
induction of apoptosis [2]: induced apoptosis
induction of apoptosis [3]: induced apoptosis
induction of apoptosis [4]: induced apoptosis
induction of apoptosis [5]: apoptosis was induced

Compound: AAVALLPAVLLALLA [nfkb, reference compound]
mouse weight at day 28 ([6]; intra-tumoural injections, day 28 relative to time 0 / control group, FIG. 18B): marked weight loss

Compound: AAVALLPAVLLALLAP [nfkbp, K-FGF signal peptide]
effect of signal peptide alone on proliferation [7]: essentially no effect

Compound: AAVALLPAVLLALLAPRSKAKNPLYR [nfkb10(4)p]
impact on proliferation of normal HUVEC cells [1]: relatively minimal
inhibition of proliferative response compared to 5-FU [8]: more effective

Compound: AAVALLPAVLLALLARSKAKNPLYR (also: acetate salt) [nfkb10(4)acetate]
inhibition of proliferation at the highest concentration ([9]; HT29, MTT, highest concentration of peptide employed): total inhibition

Compound: AAVALLPAVLLALLARSKAKNPLYR [IK2]
induction of apoptosis [2]: essentially no apoptosis
induction of apoptosis [3]: essentially no apoptosis
induction of apoptosis [4]: essentially no apoptosis

mouse weight at day 28 ([6]; mouse, in vivo): Substantially no difference
Compound: AAVALLPAVLLALLARSKAKWQTGTNPLYR [IK-1]
impact on proliferation of normal HUVEC cells ([1]; HUVEC, MTT): essentially no impact

Compound: AAVALLPAVLLALLARSRARNPLYR [nf-b5-10-4]
degree of inhibition compared with nf-b5-frag 5 ([9]; HT29, MTT, FIG. 14G): greater degree of inhibition
inhibition of proliferation (in words) ([9]; HT29, MTT): inhibited proliferation

Compound: Alkyl(4): stearic acid coupled to the RSKAKNPLYR peptide (also: stearic acid coupled (site not given here))
inhibition of proliferation (in words) ([9]; HT29, MTT): effective

Compound: GRKKRRQRRRPQCG [TAT-G, reference compound]
toxicity of carrier peptide alone ([9]; HT29, FIG. 8 and FIG. 9): some toxicity

Compound: HRDLKPSNLAVNEDCELKILDFGLAR [p38 MAP kinase fragment]
binding to the cytoplasmic domain of β6 [10]: bound

binding to ERK2 [11]: bound by ERK2
Compound: KEKLKNPLFK [β2 (10(4)]

binding to ERK2 [11]: still bound by ERK2
Compound: RARAKNPLYK

binding to ERK2 [11]: binds to ERK2
binding to ERK2 ([11]; listed as RSKAKNPLYR): still bound by ERK2
Compound: RSKAKNPLYR [10(4)]

binding to ERK1 [12]: bind
binding to ERK2 [11]: bind
Compound: RSKAKWQTGTNPLYR

binding to ERK2 [11]: still bound by ERK2
Compound: RSRARNPLYR

Compound: VTVLALGALAGVGVGRSKAKWQTGTNPLYR [Frag 5B3]
proliferation of the cells relative to control cells ([9]; HT29, MTT, higher concentration of the peptides used, FIG. 5): about 37%
